# In patent US5846562A, “Oral composition of fumagillol derivative” (Takeda Chemical Industries, Ltd., priority 1996, dated 1998):
# Where two headings read alike, the source gives them in different places.
# Experiments:
# [1] = rat, in vivo, po, 100 mg/kg
# Source text: Blood was collected from the caudal vein periodicaly to determine the plasma concentration of metabolite.
# Colon 26 cancer cells [2] = test: Lung metastasis (tumor colonies) in Colon 26 tumor-bearing mice, oral; assay type: in vivo, female BALB/c mice; conditions: for T/C (median number of tumor colonies metastasized to the lungs vs untreated control): oral once daily day 7 to day 20, sample solution in Miglyol 812, day 21
# Experimental: (§1) Tumor-bearing mice were provided by transplanting 1×10^5 Colon 26 cancer cells/animal in the flank of female 10-week-old BALB/c mice (Charles River Japan). […] On day 21, the tumor mass at the transplantation site was excised and weighed, and the tumor weight ratio relative to the untreated control group (T/C) was calculated. In addition, the tumor colonies metastasized to the lungs were counted and the median value in each group was compared with that in the untreated control group (T/C).
# [3] = Plasma concentration of metabolite after oral compound A with or without famotidine pretreatment; assay type: in vivo, SD rats; conditions: famotidine-treated group, intragastric pH elevated, vs no famotidine
# Experimental: Famotidine (Sigma) was administered subcutaneously to SD rats fasted overnight (dose; 10 mg/kg). […] Blood was serially drawn from the caudal vein to determine the plasma concentration of metabolites.
# Colon 26 cancer cells [4] = test: Colon 26 tumor growth inhibition in tumor-bearing mice, oral; assay type: in vivo, female BALB/c mice; conditions: solution in Miglyol 812
# Experimental: as §1
smiles,measurement,setting,value
"CO[C@@H]1[C@H](OC(=O)NC(=O)CCl)CC[C@]2(CO2)[C@H]1[C@@]1(C)O[C@@H]1CC=C(C)C [Compound A, 6-O-(N-chloroacetylcarbamoyl)fumagillol]",Plasma concentration of metabolite,[1]; 5 min,15.7 ± 1.6 ng/mL
same,Plasma concentration of metabolite,[1]; 10 min,17.3 ± 4.9 ng/mL
same,Plasma concentration of metabolite,[1]; 30 min,5.8 ± 3.6 ng/mL
same,Plasma concentration of metabolite,[1]; 60 min,0 ng/mL
same,T/C (median number of tumor colonies metastasized to the lungs vs untreated control),Colon 26 cancer cells [2]; 25 mg/kg,71%
same,T/C (median number of tumor colonies metastasized to the lungs vs untreated control),Colon 26 cancer cells [2]; 50 mg/kg,52%
same,effect on tumor metastasis inhibition,"Colon 26 cancer cells [2]; oral, solution in Miglyol 812",potent and dose-dependent effect
same,absorption,[3],marked increase in absorption
same,effect on tumor growth inhibition,Colon 26 cancer cells [4],potent and dose-dependent effect
